Test system: 186277-243-T-J2-PDC complex spheroids, viability
Experiment: Anticancer human tumor 186277-243-T-J2-PDC patient-derived colon adenocarcinoma cell line growth inhibition [RAS]
Conditions: for IC50: curve of first compound; for viability, T/C: stronger effect = lower value
Description: RAS pathway inhibitors in Combinations in Complex Spheroids
A high-throughput screen of multi-cell type tumor spheroids was designed to identify active combinations of RAS pathway inhibitors and targeted small molecules. Complex spheroids include a stromal component modeled by human endothelial cells (HUVEC) and fibroblasts modeled by human mesenchymal stem cells (MSCs). The concentration ranges selected for each drug and investigational agent were based upon clinically achievable concentrations if the clinical Cmax of the agent was known.
Compounds. The drugs and investigational agents: abemaciclib (NSC768073), cobimetinib (NSC768068), divarasib (GDC6063, NSC841802), docetaxel (NSC628503), GDC-1971 (RLY-1971, NSC841576), gemcitabine (NSC613327), inavolisib (NSC800729), ipatasertib (NSC767898), KB-0742 (NSC834161), MRTX-1133 (NSC836407), osimertinib (NSC779217), RMC-4630 (NSC839698), RMC-6236 (NSC851965), RMC-6291 (NSC852671), Ro-3306 (NSC812927), sapanisertib (NSC764658), SN-38 (NSC673596), staurosporine (NSC755774), SY5609 (NSC837396), and tovorafenib (DAY101, NSC766906), were obtained from the National Cancer Institute (NCI) Developmental Therapeutics Program Chemical Repository. The FDA-approved anticancer drug set is available from the NCI Developmental Therapeutics Program. […] The stock solutions were prepared in dimethyl sulfoxide (DMSO, Sigma-Aldrich, St. Louis, MO, cat. D2650) at 800-fold the tested concentration and stored at -70 degrees C prior to their use. All drugs and investigational agents were tested over a range starting from a high concentration at or near the clinical Cmax and decreasing in half-log increments. If the clinical Cmax for an agent had not been determined, the highest concentration tested was 10 microM.
Cell Culture. All cells were maintained in an incubator at 37 degrees C and 5% CO2 with 95% humidity. The PDC lines were cultured according to standard operating procedures established by the NCI PDMR. All PDCs were thawed and cultured in Matrigel-coated flasks prepared with a working solution of 1X Ham's F-12 nutrient mix, without supplementation (Invitrogen, Waltham, MA, cat. 11765054), 100 U/mL penicillin-streptomycin (Invitrogen, cat. 15140122), and 2.5% Matrigel (Corning Inc., Corning, NY, cat. 354248) for the first three passages. The 362531-283-R-J2-PDC and 782815-120-R-J1-PDC lines were cultured in 6C/Colon 1B media, which includes advanced DMEM/F-12 (Thermo Fisher Scientific, cat. 12634028), 10 mM HEPES (Thermo Fisher Scientific, cat. 15630080), 1X GlutaMAX supplement (Thermo Fisher Scientific, cat. 35050061), 0.1 mg/mL primocin (InvivoGen, San Diego, CA, cat. ant-pm-2), 10% defined fetal bovine serum, heat inactivated (HyClone Laboratories Inc., Logan, UT, cat. SH30070.03HI), 50% L-WRN conditioned media (ATCC, cat. CRL-3276), 1.25 mM N-Acetyl-L-cysteine (Sigma-Aldrich, cat. A9165), 10 mM nicotinamide (Sigma-Aldrich, cat. N0636), 1X B-27 supplement (Thermo Fisher Scientific, cat. 17504044), 1X N-2 supplement (Thermo Fisher Scientific, cat. 17502048), 50 ng/mL human EGF (Thermo Fisher Scientific, cat. PHG0311), and 10 microM Y-27632 dihydrochloride (Tocris Bioscience, cat. 1254). The K12877-001-R-J1-PDC line was cultured in 6I media, which includes all 6C/Colon 1B media plus 10 ng/mL human FGF-10 (PeproTech, cat. 100-26), 1 ng/mL human FGF-2 (PeproTech, cat. 100-18B), 1 µM prostaglandin E2 (Tocris Bioscience, cat. 2296), […] hydrocortisone (Sigma-Aldrich, cat. H4001), and […] bovine insulin (Sigma-Aldrich, cat. I6634). The K86415-001-R-J1-PDC line was cultured in 6D media, which includes all 6C/Colon 1B media components minus the L-WRN conditioned media. The 485176-168-R4-J1-PDC was cultured in PANC media, which includes all 6C/Colon 1B media plus 100 ng/mL human FGF-10 (PeproTech, cat. 100-26), 500 nM SB-431542 (Selleckchem, cat. S1067), and 10 nM gastrin (Tocris Bioscience, cat. 3006). […]
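Note: spheroids exposed to compounds for 7 days before viability read.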

IC50 (second compound 0.0316 µM): 244 nM | IC50 (second compound 0.1 µM): 117 nM | IC50 (second compound 0.316 µM): < 31.6 nM | IC50 (second compound 1 µM): < 31.6 nM | IC50 (second compound 3.16 µM): < 31.6 nM | IC50 (second compound 10 µM): < 31.6 nM
Structure (SMILES): CC(C)NCC(C(=O)N1CCN(c2ncnc3c2C(C)CC3O)CC1)c1ccc(Cl)cc1 (configuration not stated) + C#Cc1c(F)ccc2cc(O)cc(-c3ncc4c(N5CC6CCC(C5)N6)nc(OCC56CCCN5CC(F)C6)nc4c3F)c12
viability, T/C (second compound 0.0316 µM, first compound 0.0316 µM): 74.3% | viability, T/C (second compound 0.0316 µM, first compound 0.1 µM): 76.1% | viability, T/C (second compound 0.0316 µM, first compound 0.316 µM): 40.8% | viability, T/C (second compound 0.0316 µM, first compound 1 µM): 20.5% | viability, T/C (second compound 0.0316 µM, first compound 3.16 µM): 10.6% | viability, T/C (second compound 0.0316 µM, first compound 10 µM): 7.17% | viability, T/C (second compound 0.1 µM, first compound 0.0316 µM): 55.4% | viability, T/C (second compound 0.1 µM, first compound 0.1 µM): 55.4% | viability, T/C (second compound 0.1 µM, first compound 0.316 µM): 29.3% | viability, T/C (second compound 0.1 µM, first compound 1 µM): 12% | viability, T/C (second compound 0.1 µM, first compound 3.16 µM): 6.43% | viability, T/C (second compound 0.1 µM, first compound 10 µM): 4.17% | viability, T/C (second compound 0.316 µM, first compound 0.0316 µM): 28.8% | viability, T/C (second compound 0.316 µM, first compound 0.1 µM): 26.3% | viability, T/C (second compound 0.316 µM, first compound 0.316 µM): 13.1% | viability, T/C (second compound 0.316 µM, first compound 1 µM): 5.77% | viability, T/C (second compound 0.316 µM, first compound 3.16 µM): 3.93% | viability, T/C (second compound 0.316 µM, first compound 10 µM): 2.95% | viability, T/C (second compound 1 µM, first compound 0.0316 µM): 17.7% | viability, T/C (second compound 1 µM, first compound 0.1 µM): 14.4% | viability, T/C (second compound 1 µM, first compound 0.316 µM): 10.1% | viability, T/C (second compound 1 µM, first compound 1 µM): 5.25% | viability, T/C (second compound 1 µM, first compound 3.16 µM): 4.08% | viability, T/C (second compound 1 µM, first compound 10 µM): 2.03% | viability, T/C (second compound 3.16 µM, first compound 0.0316 µM): 12.4% | viability, T/C (second compound 3.16 µM, first compound 0.1 µM): 11.2% | viability, T/C (second compound 3.16 µM, first compound 0.316 µM): 9.1% | viability, T/C (second compound 3.16 µM, first compound 1 µM): 3.67% | viability, T/C (second compound 3.16 µM, first compound 3.16 µM): 2.83% | viability, T/C (second compound 3.16 µM, first compound 10 µM): 2.07% | viability, T/C (second compound 10 µM, first compound 0.0316 µM): 8.59% | viability, T/C (second compound 10 µM, first compound 0.1 µM): 9.81% | viability, T/C (second compound 10 µM, first compound 0.316 µM): 5.65% | viability, T/C (second compound 10 µM, first compound 1 µM): 3.64% | viability, T/C (second compound 10 µM, first compound 3.16 µM): 2.9% | viability, T/C (second compound 10 µM, first compound 10 µM): 0.94%

— PubChem BioAssay AID2060908 (Molecular Pharmacology Branch, DTP, NCI, 2025)
